According to patent publication US20200031811A1, “SUBSTITUTED MONO- AND POLYAZANAPHTHALENE DERIVATIVES AND THEIR USE” (Basilea Pharmaceutica International AG, priority 2015, published 2020):

Legend:
[1] = test system: human pancreatic cancer cell line MiaPaCa2 (ATCC CRL-1420); assay: Cell growth assay (CellTiterGlo, 72 hours); format: cell-based; settings: for IC50: MIA PaCa-2, MiaPaCa2 cells, 72 hours, read-out: IC50 MiaPaCa
In short: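 MiaPaCa2 cells (10^3/well) seeded in supplemented DMEM overnight, then exposed in quadruplicate to compound at 100 down to 0.1 μM for 72 h at 37° C. Growth read by CellTiterGlo luminescence, medium-only background subtracted, normalised to untreated cells; IC50 = concentration reducing growth to 50%.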

MNK1 = molecular target: T1, MNK1 (Homo sapiens, UniProt Q9BUB5); assay: MNK inhibition assay (Z-Lyte kinase assay, Ser/Thr 7 peptide); format: biochemical; settings: for IC50: recombinant GST-MNK1, 3 hours at 31° C.
T1 construct: purchased Life Technologies or Carna Biosciences PV6023 or 02-145; host or cells: baculovirus infected insect cells
T1 sequence (Q9BUB5 whole entry): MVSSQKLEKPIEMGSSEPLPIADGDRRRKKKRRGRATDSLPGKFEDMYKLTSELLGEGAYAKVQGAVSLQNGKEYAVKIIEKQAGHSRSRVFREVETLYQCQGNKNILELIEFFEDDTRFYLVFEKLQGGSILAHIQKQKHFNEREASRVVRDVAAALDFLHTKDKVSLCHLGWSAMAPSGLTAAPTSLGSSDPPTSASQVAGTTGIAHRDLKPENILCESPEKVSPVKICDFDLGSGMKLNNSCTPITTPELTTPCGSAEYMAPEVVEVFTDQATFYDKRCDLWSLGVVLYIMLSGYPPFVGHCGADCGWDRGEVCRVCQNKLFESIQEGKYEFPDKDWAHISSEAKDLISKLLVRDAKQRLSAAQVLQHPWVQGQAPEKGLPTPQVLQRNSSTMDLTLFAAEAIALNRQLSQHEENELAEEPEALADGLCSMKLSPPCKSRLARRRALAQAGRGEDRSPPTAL
In short: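 Recombinant GST-MNK1 from baculovirus-infected insect cells, Z-Lyte Ser/Thr 7 peptide, enzyme set for ~30% phosphorylation in buffer-only wells; 3 hours at 31° C. Compounds at 50–10000 nM (potent ones down to 0.5 nM), at least duplicate. IC50 from % substrate phosphorylation versus buffer-only wells, fluorescence read-out.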

IC50 [1] [µM]	IC50 (MNK1) [µM]	SMILES	further results
6.99	0.057	Nc1cc2cncc(-c3cc4ccccc4o3)c2cc1CN1CCC(N)CC1 [Example 254, 6-[(4-Amino-1-piperidyl)methyl]-4-(benzofuran-2-yl)isoquinolin-7-amine]	–
3.24	–	N[C@H]1CC[C@@H](CNc2ccc3cncc(-c4cc5ccccc5o4)c3c2)CC1 [Example 231]	inhibition at 10 µM (MNK1; at 10 μM, read-out: Inhibition of MNK1 activity at indicated concentration): 54%
10.4	0.371	N[C@H]1CC[C@H](C(=O)Nc2ccc3cncc(-c4cc5ccccc5o4)c3c2)CC1 [Example 156, trans-4-Amino-N-[4-(benzofuran-2-yl)-6-isoquinolyl]cyclohexanecarboxamide]	–
21.9	0.308	NC1CCN(Cc2cc3c(-c4ccccc4)cncc3cc2O)CC1 [Example 265, 6-[(4-Amino-1-piperidyl)methyl]-4-phenyl-isoquinolin-7-ol]	–
10.9	4.68	Nc1cccc(Nc2ccc3cncc(-c4cc5ccccc5o4)c3c2)c1 [Example 135]	–
5.33	0.053	N[C@@H]1CCN(Cc2ccc3cncc(-c4cc5ccccc5o4)c3c2)C[C@H]1O [Example 268, (3R,4R/3S,4S)-4-Amino-1-[[4-(benzofuran-2-yl)-6-isoquinolyl]methyl]piperidin-3-ol]	–
8.17	0.056	c1coc(-c2cncc3ccc(CNc4ccnc5ccccc45)cc23)c1 [Example 208]	–
2.17	0.153	Nc1ncc(-c2ccccc2)c2cc(O[C@H]3CC[C@H](N)CC3)ccc12 [Example 322]	–
3.48	0.113	c1ccc2oc(-c3cncc4ccc(NCC5CCNCC5)cc34)cc2c1 [Example 213]	–
7.72	1.07	COc1ccc2oc(-c3cncc4ccc(CN5CCC(N)CC5)cc34)cc2c1 [Example 175]	–
4.5	0.225	N[C@H]1CC[C@H](Nc2ccc3cncc(-c4ccccc4)c3c2)CC1 [Example 229, trans-N4-(4-phenyl-6-isoquinolyl)cyclohexane-1,4-diamine]	–
5.63	0.34	NC1CCN(Cc2ccc3cncc(-c4cc5cc(Cl)ccc5o4)c3c2)CC1 [Example 188]	–
47.6	0.353	NC1CCN(C(=O)c2ccc3cncc(-c4ccc(O)cc4)c3c2)CC1 [Example 28, (4-Amino-1-piperidyl)-[4-(4-hydroxyphenyl)-6-isoquinolyl]methanone]	–
4.28	1.47	Nc1ncc(-c2cccc(F)c2)c2cc(CN3CCC(N)CC3)ccc12 [Example 220]	–
–	4.7	NC1CCN(Cc2ccc3cncc(-c4cn[nH]c4)c3c2)CC1 [Example 204]	inhibition at 50 µM ([1]; MIA PaCa-2, at 50 μM, read-out: Inhibition of MiaPaCa growth at indicated concentration): 55%
1.68	0.3	COc1cc(CN2CCC(N)CC2)cc2c(-c3ccc(Cl)cc3)cnc(N)c12 [Example 295, 6-[(4-Amino-1-piperidyl)methyl]-4-(4-chlorophenyl)-8-methoxy-isoquinolin-1-amine]	–
6.19	0.045	CN(C)c1cc(NCc2ccc3cncc(-c4cc5ccccc5o4)c3c2)ccn1 [Example 68]	–
5.31	1.02	Nc1ncc(-c2ccc(F)cc2)c2cc(CN3CCC(N)CC3)ccc12 [Example 219]	–
–	4.68	c1cncc(Nc2ccc3cncc(-c4cc5ccccc5o4)c3c2)c1 [Example 134]	inhibition at 100 µM ([1]; MIA PaCa-2, at 100 μM, read-out: Inhibition of MiaPaCa growth at indicated concentration): 45%
5.76	0.105	N[C@H]1CC[C@H](Oc2cc(Cl)c3cncc(-c4ccccc4)c3c2)CC1 [Example 311]	–
5.58	0.057	CN(Cc1ccc2cncc(-c3cc4ccccc4o3)c2c1)c1ccncc1 [Example 67]	–
10.3	0.418	Nc1ncc(-c2ccco2)c2cc(CN3CCC(N)CC3)ccc12 [Example 289]	–
5.76	0.145	NC1CCN(Cc2cc(Cl)c3cncc(-c4cccs4)c3c2)CC1 [Example 240]	–
18	0.142	c1ccc2oc(-c3cncc4ccc(CN5CCNCC5)nc34)cc2c1 [Example 302]	–
3.06	3.01	Nc1ncc(-c2ccc(Cl)c(Cl)c2)c2cc(CN3CCC(N)CC3)ccc12 [Example 217]	–
2.34	0.028	N[C@H]1CC[C@H](Nc2cc(Cl)c3cncc(-c4ccccc4)c3c2)CC1 [Example 308]	–
38	1.18	NC1CCN(Cc2ccc3cncc(-c4cccc(CO)c4)c3c2)CC1 [Example 182]	–

IC50 [1] [µM]	IC50 (MNK1) [µM]	SMILES	further results
16.4	0.245	NC1CCN(Cc2ccc3cncc(-c4ccc(Cl)c(Cl)c4)c3c2)CC1 [Example 200]	–
2.55	0.087	COc1cc(N[C@H]2CC[C@H](N)CC2)cc2c(-c3ccccc3)cncc12 [Example 315]	–
9.88	–	Nc1ncc2ccc(CN3CCC(N)CC3)cc2c1-c1ccccc1 [Example 162, 6-[(4-Amino-1-piperidyl)methyl]-4-phenyl-isoquinolin-3-amine]	inhibition at 1 µM (MNK1; at 1 μM, read-out: Inhibition of MNK1 activity at indicated concentration): 54%
2.51	0.011	Nc1ncc(-c2cc3ccccc3o2)c2cc(CNc3ccncc3)ccc12 [Example 151, 4-(Benzofuran-2-yl)-6-[(4-pyridylamino)methyl]isoquinolin-1-amine]	–
3.57	0.043	Nc1cc(NCc2ccc3nncc(-c4cc5ccccc5o4)c3c2)ccn1 [Example 278, N4-[[4-(Benzofuran-2-yl)cinnolin-6-yl]methyl]pyridine-2,4-diamine]	–
9.87	0.958	NC1CCN(Cc2ccc3cncc(-c4cnc5ccccc5c4)c3c2)CC1 [Example 173]	–
8.67	0.212	NC1CCN(Cc2ccc3cncc(-c4ccc5c(c4)OCO5)c3c2)CC1 [Example 199]	–
0.8	1.04	Cc1ccc(-c2cncc3ccc(CN4CCC(N)CC4)cc23)o1 [Example 167, 1-[[4-(5-methyl-2-furyl)-6-isoquinolyl]methyl]piperidin-4-amine]	–
11.3	0.476	Nc1ncc(-c2ccccc2)c2cc(CN3CCNCC3)ccc12 [Example 91, 4-Phenyl-6-(piperazin-1-ylmethyl)isoquinolin-1-amine]	–
15	0.005	Oc1cnccc1NCc1ccc2cncc(-c3cc4ccccc4o3)c2c1 [Example 73]	–
5.63	0.116	COc1c(CN2CCC(N)CC2)cc2c(-c3cc4ccccc4o3)cncc2c1OC [Example 279, 1-[[4-(Benzofuran-2-yl)-7,8-dimethoxy-6-isoquinolyl]methyl]piperidin-4-amine]	–
1.96	0.474	COc1cc(N[C@H]2CC[C@H](N)CC2)cc2c(-c3cc4ccccc4o3)cncc12 [Example 143, N4-[4-(benzofuran-2-yl)-8-methoxy-6-isoquinolyl]cyclohexane-1,4-diamine]	–
5.25	0.003	c1ccc2oc(-c3cncc4ccc(CNc5ccncc5)cc34)cc2c1 [Example 61]	–
3.55	0.675	N[C@H]1CC[C@@H](Oc2ccc3cncc(-c4cc5ccccc5o4)c3c2)CC1 [Example 80]	–
28	1.3	O=C(c1ccc2cncc(-c3cc4ccccc4o3)c2n1)N1CCNCC1 [Example 305]	–
24.3	0.285	NC1CCN(Cc2ccc3cncc(-c4ccncc4)c3c2)CC1 [Example 13]	–
8.54	0.687	NCCCOCc1ccc2c(N)ncc(-c3cc4ccccc4o3)c2c1 [Example 109, 6-(3-Aminopropoxymethyl)-4-(benzofuran-2-yl)isoquinolin-1-amine]	–
4.58	0.312	Nc1ncc(-c2ccccc2)c2cc(N[C@H]3CC[C@H](N)CC3)ccc12 [Example 317, trans-N6-(4-aminocyclohexyl)-4-phenyl-isoquinoline-1,6-diamine]	–
8.4	0.228	NC1CCN(Cc2cc(F)c3cncc(-c4cc5ccccc5o4)c3c2)CC1 [Example 247]	–
6.34	4.22	NCc1ccccc1NCc1ccc2cncc(-c3cc4ccccc4o3)c2c1 [Example 51, 2-(Aminomethyl)-N-[[4-(benzofuran-2-yl)-6-isoquinolyl]methyl]aniline]	–
24	0.465	N[C@H]1CC[C@@H](NC(=O)c2ccc3cncc(-c4cc5ccccc5o4)c3c2)CC1 [Example 161]	–
12.2	0.284	N[C@H]1CC[C@H](NC(=O)c2ccc3cncc(-c4cc5ccccc5o4)c3c2)CC1 [Example 160, Trans-N-(4-aminocyclohexyl)-4-(benzofuran-2-yl)isoquinoline-6-carboxamide]	–
15.5	0.161	NC1CCN(Cc2ccc3cncc(-c4cc5ncccc5o4)c3c2)CC1 [Example 276]	–
4.23	0.16	Nc1ncc(-c2ccc(Cl)cc2)c2cc(CN3CCC(N)CC3)cc(Cl)c12 [Example 284]	–
1.56	0.017	Nc1cc[n+](Cc2ccc3c(N)ncc(-c4cc5ccccc5o4)c3c2)cc1 [Example 152, 6-[(4-Aminopyridin-1-ium-1-yl)methyl]-4-(benzofuran-2-yl)isoquinolin-1-amine]	–
11.3	0.395	NCCCOCc1ccc2c(N)ncc(-c3ccc(Cl)cc3)c2c1 [Example 110]	–
